Test results reported in ChEMBL document CHEMBL1201862, “PubChem BioAssay data set” (2004).
Activity calls are given as the source filed them.

What was measured:
[1] = molecular target: T1, Polyadenylate-binding protein 1 (Homo sapiens, UniProt P11940); assay: MLLE binding blockers, Cy5 peptide tracer – biochemical, fluorescence polarization, Cy5-PAM2 peptide, secondary, miRNA deadenylation inhibitor project, dose response (AID 602260); format: functional; conditions: read-out: IC50_Mean
[2] = molecular target: T2, RNA-binding protein pos-1 (Caenorhabditis elegans, UniProt G5EF15); assay: disruptors of C. elegans POS-1 RNA interaction – biochemical, fluorescence polarization, dose response (AID 1964);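 note: purified POS-1 fused to maltose binding protein made in E. coli; potency of compounds blocking POS-1 binding to fluorescent RNA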
T2 sequence (G5EF15 whole entry): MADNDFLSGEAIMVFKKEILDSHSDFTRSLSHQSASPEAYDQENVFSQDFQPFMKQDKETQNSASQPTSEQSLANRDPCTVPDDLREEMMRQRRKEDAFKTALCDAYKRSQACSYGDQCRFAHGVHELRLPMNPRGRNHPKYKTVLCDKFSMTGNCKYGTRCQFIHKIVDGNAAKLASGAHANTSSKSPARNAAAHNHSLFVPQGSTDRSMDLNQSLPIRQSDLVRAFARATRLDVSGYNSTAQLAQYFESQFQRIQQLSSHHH

[3] = molecular target: T3, Zinc finger protein mex-5 (Caenorhabditis elegans, UniProt Q9XUB2); assay: potency of MEX-5 RNA-binding blockers – biochemical, C. elegans, fluorescence polarization, dose response (AID 1960)
T3 sequence (Q9XUB2 whole entry): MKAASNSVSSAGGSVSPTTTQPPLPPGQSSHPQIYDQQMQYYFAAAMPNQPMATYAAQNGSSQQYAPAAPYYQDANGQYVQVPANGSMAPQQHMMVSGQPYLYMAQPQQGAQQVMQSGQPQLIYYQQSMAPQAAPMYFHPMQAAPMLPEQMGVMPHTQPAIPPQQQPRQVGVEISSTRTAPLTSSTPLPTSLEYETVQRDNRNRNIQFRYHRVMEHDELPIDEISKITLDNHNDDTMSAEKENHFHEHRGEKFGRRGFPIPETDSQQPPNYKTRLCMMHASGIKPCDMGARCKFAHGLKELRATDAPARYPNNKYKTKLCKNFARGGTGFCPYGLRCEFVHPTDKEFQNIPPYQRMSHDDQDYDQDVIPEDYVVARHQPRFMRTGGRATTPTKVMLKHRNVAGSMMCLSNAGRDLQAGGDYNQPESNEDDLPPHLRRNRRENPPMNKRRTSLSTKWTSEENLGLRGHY

[4] = molecular target: T1, Polyadenylate-binding protein 1; assay: MLLE domain peptide-binding blockers, IC50 – biochemical, fluorescence polarization, FITC-PAM2 peptide, dose response (AID 602259); format: functional; conditions: read-out: IC50_Mean
Cytochrome P450 2D6 = Cytochrome P450 2D6 (Homo sapiens, UniProt P10635);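 note: CYP2D6 member of a cytochrome P450 panel assay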
cells = format: functional
[5] = molecular target: T4, Short transient receptor potential channel 4 (Mus musculus, UniProt Q9QUQ5); assay: calcium entry via TRPC4 opening agents – cell-based, HEK293 TRPC4/mu-opioid, Fluo-4 calcium, dose response (AID 434937); format: functional
T4 sequence (Q9QUQ5 whole entry): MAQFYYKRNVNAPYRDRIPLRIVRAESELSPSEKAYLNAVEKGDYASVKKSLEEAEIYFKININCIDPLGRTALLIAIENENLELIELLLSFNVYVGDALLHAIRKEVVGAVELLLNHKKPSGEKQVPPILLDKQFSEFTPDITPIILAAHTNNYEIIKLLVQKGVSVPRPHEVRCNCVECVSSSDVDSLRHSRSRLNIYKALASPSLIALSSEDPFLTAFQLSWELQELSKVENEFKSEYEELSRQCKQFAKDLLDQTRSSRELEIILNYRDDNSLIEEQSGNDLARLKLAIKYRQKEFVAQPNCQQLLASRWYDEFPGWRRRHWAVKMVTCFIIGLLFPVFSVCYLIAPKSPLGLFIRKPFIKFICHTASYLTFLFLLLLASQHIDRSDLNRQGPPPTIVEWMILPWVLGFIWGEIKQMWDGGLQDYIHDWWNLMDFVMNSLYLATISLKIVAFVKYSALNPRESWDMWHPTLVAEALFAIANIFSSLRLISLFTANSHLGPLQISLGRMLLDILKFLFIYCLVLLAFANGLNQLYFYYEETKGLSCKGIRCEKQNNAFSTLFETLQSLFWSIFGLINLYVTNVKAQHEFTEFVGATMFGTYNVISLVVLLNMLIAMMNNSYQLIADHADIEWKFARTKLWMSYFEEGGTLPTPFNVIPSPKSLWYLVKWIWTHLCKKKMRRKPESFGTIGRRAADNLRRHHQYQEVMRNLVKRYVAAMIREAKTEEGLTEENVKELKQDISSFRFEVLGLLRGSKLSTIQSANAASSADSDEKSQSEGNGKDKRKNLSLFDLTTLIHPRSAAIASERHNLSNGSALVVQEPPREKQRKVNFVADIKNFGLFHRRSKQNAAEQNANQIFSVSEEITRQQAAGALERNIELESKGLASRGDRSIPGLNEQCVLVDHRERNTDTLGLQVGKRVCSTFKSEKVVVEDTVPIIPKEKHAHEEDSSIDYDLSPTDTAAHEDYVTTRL

[6] = microbe, parasite or virus in culture; format: functional; conditions: Mycobacterium tuberculosis
Cytochrome P450 2C9 = Cytochrome P450 2C9 (Homo sapiens, UniProt P11712)
Cytochrome P450 3A4 = Cytochrome P450 3A4 (Homo sapiens, UniProt P08684);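 note: CYP3A4 tested as one member of a cytochrome P450 panel screen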
Cytochrome P450 2C19 = Cytochrome P450 2C19 (Homo sapiens, UniProt P33261); assay: Cytochrome panel assay with activity outcomes. Panel member name: p450-cyp2c19 Compounds with AC50 equal or less than 10 uM are considered active; format: functional; conditions: read-out: AC50
Cytochrome P450 1A2 = molecular target: T5, Cytochrome P450 1A2 (Homo sapiens, UniProt P05177);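 note: PubChem cytochrome P450 panel assay, CYP1A2 panel member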
T5 sequence (P05177 whole entry): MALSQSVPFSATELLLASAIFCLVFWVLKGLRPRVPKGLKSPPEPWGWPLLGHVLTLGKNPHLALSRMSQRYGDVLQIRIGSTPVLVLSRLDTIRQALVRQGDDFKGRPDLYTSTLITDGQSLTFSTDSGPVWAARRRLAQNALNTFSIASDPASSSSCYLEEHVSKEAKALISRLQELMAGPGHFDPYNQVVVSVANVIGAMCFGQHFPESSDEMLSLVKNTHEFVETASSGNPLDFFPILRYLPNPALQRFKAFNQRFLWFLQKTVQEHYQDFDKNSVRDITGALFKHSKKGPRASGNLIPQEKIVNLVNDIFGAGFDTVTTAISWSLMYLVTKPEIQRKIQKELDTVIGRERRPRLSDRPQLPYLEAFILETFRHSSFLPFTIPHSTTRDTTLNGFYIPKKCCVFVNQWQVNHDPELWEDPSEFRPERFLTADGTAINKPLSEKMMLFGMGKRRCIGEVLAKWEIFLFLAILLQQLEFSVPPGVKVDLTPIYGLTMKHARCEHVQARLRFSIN

Streptokinase A = molecular target: T6, Streptokinase A (Streptococcus pyogenes serotype M1, UniProt P10520); assay: viability-normalized secreted streptokinase activity reduction – plasminogen activation absorbance, OD405, dose response (AID 1914); format: functional, Streptococcus pyogenes M1 GAS;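 note: secreted streptokinase activity via plasminogen activation per viability signal from cell pellet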
T6 sequence (P10520 whole entry): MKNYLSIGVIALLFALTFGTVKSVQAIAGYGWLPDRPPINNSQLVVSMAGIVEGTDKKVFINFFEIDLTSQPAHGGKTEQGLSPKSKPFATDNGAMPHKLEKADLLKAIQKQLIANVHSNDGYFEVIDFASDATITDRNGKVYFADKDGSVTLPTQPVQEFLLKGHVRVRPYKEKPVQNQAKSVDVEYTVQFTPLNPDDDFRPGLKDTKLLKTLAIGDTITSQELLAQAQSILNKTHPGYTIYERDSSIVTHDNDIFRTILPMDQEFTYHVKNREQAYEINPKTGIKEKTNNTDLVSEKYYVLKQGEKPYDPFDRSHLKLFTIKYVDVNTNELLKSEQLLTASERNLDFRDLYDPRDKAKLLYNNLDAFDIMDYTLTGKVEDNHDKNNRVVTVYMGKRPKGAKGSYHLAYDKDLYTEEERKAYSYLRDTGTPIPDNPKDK

[7] = system: Streptococcus sp. 'group A'; assay: Streptococcus pyogenes SK(-)GAS viability under kanamycin – luminescence, BacTiterGlo, confirmation, counter-screen for streptokinase expression inhibitor project, dose response (AID 1900); format: functional, organism-based
Streptococcus = assay: GAS UMAA2166 growth inhibition – luminescence, BacTiterGlo, counter-screen for streptokinase expression inhibitor project, dose response (AID 1915); format: functional, organism-based;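 note: potency for reduction of bacterial viability or growth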
[8] = molecular target: T7, Rac GTPase-activating protein 1 (Homo sapiens, UniProt Q9H0H5); assay: blockers of MgcRacGAP-driven Rac1 GTP hydrolysis – biochemical, ADP Hunter fluorescence, primary and confirmatory, confirmation (AID 624330); format: functional
T7 sequence (Q9H0H5 whole entry): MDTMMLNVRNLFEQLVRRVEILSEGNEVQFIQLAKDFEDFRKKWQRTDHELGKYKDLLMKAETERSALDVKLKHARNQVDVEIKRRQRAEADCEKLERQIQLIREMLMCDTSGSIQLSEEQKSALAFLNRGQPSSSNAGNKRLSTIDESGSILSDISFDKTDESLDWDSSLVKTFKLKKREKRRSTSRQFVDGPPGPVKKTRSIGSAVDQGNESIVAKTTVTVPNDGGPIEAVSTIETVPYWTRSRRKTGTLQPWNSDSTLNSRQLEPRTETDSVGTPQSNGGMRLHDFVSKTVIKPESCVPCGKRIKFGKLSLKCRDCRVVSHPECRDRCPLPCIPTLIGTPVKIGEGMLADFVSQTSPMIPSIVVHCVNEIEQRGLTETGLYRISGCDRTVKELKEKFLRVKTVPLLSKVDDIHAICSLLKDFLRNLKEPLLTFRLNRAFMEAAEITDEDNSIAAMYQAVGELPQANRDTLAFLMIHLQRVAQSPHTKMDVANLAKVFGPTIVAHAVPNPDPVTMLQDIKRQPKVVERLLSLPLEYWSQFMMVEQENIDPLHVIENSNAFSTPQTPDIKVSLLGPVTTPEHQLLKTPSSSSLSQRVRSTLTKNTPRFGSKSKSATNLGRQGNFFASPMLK

Sequence of Cytochrome P450 2D6 (P10635 whole entry): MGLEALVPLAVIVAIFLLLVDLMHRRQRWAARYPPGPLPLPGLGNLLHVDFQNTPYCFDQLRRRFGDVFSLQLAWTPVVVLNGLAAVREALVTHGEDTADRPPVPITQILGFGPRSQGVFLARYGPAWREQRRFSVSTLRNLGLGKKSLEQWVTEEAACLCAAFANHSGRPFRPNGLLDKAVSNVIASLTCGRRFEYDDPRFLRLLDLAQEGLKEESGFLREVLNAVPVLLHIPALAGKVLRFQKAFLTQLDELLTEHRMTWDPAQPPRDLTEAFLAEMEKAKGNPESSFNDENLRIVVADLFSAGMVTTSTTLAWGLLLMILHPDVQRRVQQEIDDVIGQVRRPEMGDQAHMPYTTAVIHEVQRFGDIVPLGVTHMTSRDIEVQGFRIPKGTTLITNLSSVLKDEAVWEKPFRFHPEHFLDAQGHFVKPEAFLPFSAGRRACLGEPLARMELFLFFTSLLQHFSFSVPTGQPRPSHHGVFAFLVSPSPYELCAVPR
T1 sequence (P11940 whole entry, the tested form may be a part): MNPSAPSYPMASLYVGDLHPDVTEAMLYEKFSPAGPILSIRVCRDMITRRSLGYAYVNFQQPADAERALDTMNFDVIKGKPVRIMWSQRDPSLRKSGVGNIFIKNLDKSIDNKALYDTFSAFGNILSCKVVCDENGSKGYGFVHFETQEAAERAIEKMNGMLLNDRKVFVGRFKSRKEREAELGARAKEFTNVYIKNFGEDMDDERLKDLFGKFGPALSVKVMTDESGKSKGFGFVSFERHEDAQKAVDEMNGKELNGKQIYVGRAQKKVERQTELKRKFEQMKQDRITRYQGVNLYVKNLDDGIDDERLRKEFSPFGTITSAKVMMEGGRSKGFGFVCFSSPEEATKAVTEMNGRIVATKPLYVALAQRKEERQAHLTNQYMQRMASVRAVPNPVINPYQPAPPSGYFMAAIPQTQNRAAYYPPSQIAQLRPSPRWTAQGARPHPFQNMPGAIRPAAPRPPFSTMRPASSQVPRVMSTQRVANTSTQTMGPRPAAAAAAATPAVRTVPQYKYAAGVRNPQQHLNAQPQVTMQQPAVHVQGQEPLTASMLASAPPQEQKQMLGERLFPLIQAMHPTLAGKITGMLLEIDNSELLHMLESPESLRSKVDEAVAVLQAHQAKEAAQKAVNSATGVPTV
Sequence of Cytochrome P450 2C9 (P11712 whole entry): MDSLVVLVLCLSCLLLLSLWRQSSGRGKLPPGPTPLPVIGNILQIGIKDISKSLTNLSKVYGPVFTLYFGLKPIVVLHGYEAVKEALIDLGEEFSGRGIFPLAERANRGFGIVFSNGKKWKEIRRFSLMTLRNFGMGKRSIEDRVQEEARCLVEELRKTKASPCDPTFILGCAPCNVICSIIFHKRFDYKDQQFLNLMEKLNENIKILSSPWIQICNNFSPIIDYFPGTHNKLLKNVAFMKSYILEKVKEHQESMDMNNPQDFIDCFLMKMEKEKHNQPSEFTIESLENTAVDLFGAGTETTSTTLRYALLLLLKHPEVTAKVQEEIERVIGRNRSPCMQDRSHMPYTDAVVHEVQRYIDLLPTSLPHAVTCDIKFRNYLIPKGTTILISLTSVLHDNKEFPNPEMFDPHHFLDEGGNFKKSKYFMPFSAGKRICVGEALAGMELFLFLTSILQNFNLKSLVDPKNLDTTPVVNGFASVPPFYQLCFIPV
Sequence of Cytochrome P450 3A4 (P08684 whole entry): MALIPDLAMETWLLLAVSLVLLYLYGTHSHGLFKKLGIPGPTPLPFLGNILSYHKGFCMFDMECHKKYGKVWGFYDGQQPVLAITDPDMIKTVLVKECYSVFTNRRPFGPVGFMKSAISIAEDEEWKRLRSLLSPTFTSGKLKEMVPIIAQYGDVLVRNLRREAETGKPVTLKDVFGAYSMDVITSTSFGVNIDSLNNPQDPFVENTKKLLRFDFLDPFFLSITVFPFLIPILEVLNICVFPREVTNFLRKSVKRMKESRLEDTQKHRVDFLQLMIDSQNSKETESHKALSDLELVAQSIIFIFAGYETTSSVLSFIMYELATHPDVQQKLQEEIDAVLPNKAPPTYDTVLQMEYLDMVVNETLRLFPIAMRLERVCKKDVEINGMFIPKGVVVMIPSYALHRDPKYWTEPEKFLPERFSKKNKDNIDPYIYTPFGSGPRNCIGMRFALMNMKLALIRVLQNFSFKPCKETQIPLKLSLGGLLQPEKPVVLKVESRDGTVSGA
Sequence of Cytochrome P450 2C19 (P33261 whole entry): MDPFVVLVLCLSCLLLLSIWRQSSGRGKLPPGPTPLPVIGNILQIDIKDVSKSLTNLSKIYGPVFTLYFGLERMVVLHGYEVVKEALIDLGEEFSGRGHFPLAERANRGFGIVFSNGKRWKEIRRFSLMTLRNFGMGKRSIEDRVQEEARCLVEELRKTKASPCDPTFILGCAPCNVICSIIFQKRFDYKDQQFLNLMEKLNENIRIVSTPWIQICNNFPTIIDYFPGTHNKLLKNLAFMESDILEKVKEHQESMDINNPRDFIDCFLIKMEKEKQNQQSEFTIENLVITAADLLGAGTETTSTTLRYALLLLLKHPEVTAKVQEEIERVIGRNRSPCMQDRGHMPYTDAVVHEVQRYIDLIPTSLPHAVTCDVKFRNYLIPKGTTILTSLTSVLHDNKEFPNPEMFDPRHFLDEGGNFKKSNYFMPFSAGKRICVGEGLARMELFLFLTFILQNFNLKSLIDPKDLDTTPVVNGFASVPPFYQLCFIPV

## CC1C2C(C)N(C)C(=O)N(C)C2N(C)C(=O)N1C (stereo unspecified)
[1]
  IC50: > 66 µM (inactive)
[2]
  EC50: 25 µM (active)
[3]
  EC50: 18.5 µM (active)
[4]
  IC50: 29.1 µM (inactive)

## N#Cc1cccc(-c2nc(NCc3cccs3)c3ccccc3n2)c1
Cytochrome P450 2D6
  AC50: 5.01 µM (inconclusive)

## COC(=O)COc1cccc(/C=N/NC(=O)CCSc2ccccc2)c1
cells
  IC50: 4.13 µM (active)

## S=C(NCCc1ccccn1)NC1CCCCC1
[5]
  EC50: 6.68 µM (active)

## C[C@H]1OC[C@@H](C[N+](C)(C)C)O1
[5]
  EC50: 0.188 µM (active)

## Cc1c(C(=O)N(C)C)sc2nc(-c3ccccn3)nc(O)c12
[6]
  CC50: > 40 µM (active)
cells
  IC50: 9.8 µM (active)

## C=CCN=C(NC#N)SCc1ccccc1
Cytochrome P450 2D6
  AC50: 22.4 µM (inconclusive)
Cytochrome P450 2C9
  AC50: 15.8 µM (inconclusive)

## COc1ccccc1CCn1c(=O)c(-c2cccc(Cl)c2)nc2cncnc21
Cytochrome P450 2D6
  AC50: 31.6 µM (inconclusive)

## COCCn1c(=O)c(-c2ccccc2)nc2cnc(N(C)C)nc21
Cytochrome P450 2D6
  AC50: 12.6 µM (inconclusive)
Cytochrome P450 3A4
  AC50: 39.8 µM (inconclusive)
Cytochrome P450 2C19
  AC50: 2 µM (inconclusive)

## C[C@@H]1CC[C@@H]2C(=O)N3[C@@H](CC[C@@H](C)[C@@H]3c3ccc(-c4ccco4)cc3)C(=O)N2[C@H]1c1ccc(-c2ccco2)cc1
Cytochrome P450 2D6
  AC50: 6.31 µM (inconclusive)

## COc1ccc(-c2nc(CSCC(=O)NC3CCN(Cc4ccccc4)CC3)c(C)o2)cc1OC
[5]
  EC50: 1.5 µM (active)

## CN(C)CCCN(C(=O)c1ccc(S(=O)(=O)N2CCCCCC2)cc1)c1nc2ccc(F)cc2s1
[5]
  EC50: 4.22 µM (active)

## CCOc1cc(/C=N/NC(=O)c2cccc([N+](=O)[O-])c2)ccc1OS(=O)(=O)c1ccccc1
Cytochrome P450 2D6
  AC50: 1 µM (inconclusive)
Cytochrome P450 3A4
  AC50: 8.91 µM (inconclusive)
Cytochrome P450 1A2
  AC50: 7.08 µM (inconclusive)
Cytochrome P450 2C9
  AC50: 11.2 µM (inconclusive)

## Cc1ccc(/C=C2/Sc3ccc(C(=O)N4CCN(c5ccccn5)CC4)cc3NC2=O)cc1
Streptokinase A
  EC50: > 150 µM (not active)
[7]
  EC50: 3.03 µM (active)
[2]
  EC50: 27.2 µM (active)
Streptococcus
  EC50: 4.43 µM (active)
[3]
  EC50: 5.05 µM (active)

## COc1cc(/C=N/NC(=O)c2ccncc2)ccc1OC(=O)c1cccc(F)c1
cells
  IC50: 0.48 µM (active)

## Cc1ccc(NC(=O)CNCC(c2ccccc2)N(C)C)cc1F (stereo unspecified)
[8]
  IC50: 70.8 µM (active)
[5]
  EC50: 0.596 µM (active)
